Source: ChEMBL document CHEMBL1268965, “Synthesis and antifungal activity of a novel series of 13-(4-isopropylbenzyl)berberine derivatives” (Bioorg Med Chem Lett, 2010)
≈ marks a conversion by molar mass, not a printed value.

Columns and labels:
[1] = system: Candida tropicalis; assay: Antifungal activity against Candida tropicalis ATCC 13803 after 24 hrs by two fold serial dilution method; type: functional; details: ATCC 13803, 24 h
[2] = system: Clavispora lusitaniae; assay: Antifungal activity against Candida lusitaniae ATCC 42720 after 24 hrs by two fold serial dilution method; type: functional; details: ATCC 42720, 24 h
[3] = system: Candida albicans; assay: Antifungal activity against Candida albicans ATCC 10231 after 24 hrs by two fold serial dilution method; type: functional; details: ATCC 10231, 24 h
[4] = system: Pichia kudriavzevii; assay: Antifungal activity against Candida krusei ATCC 6258 after 24 hrs by two fold serial dilution method; type: functional; details: ATCC 6258, 24 h
[5] = system: Aspergillus fumigatus; assay: Antifungal activity against Aspergillus fumigatus ATCC 16424 after 24 hrs by two fold serial dilution method; type: functional; details: ATCC 16424, 24 h
[6] = system: Cryptococcus neoformans; assay: Antifungal activity against Cryptococcus neoformans ATCC 36556 after 24 hrs by two fold serial dilution method; type: functional; details: ATCC 36556, 24 h
[7] = system: Aspergillus terreus; assay: Antifungal activity against Aspergillus terreus ATCC 46941 after 24 hrs by two fold serial dilution method; type: functional; details: ATCC 46941, 24 h
[8] = Toxicity in po dosed ICR mouse after 7 days; type: organism-based; details: in vivo
[9] = system: Mus musculus; assay: Toxicity ICR mouse assessed as appearance of clinical signs at 33 to 900 mg/kg, po after 7 days; type: organism-based; design: dose 33-900 mg/kg, route oral; details: in vivo, 168 h
[10] = system: Mus musculus; assay: Toxicity ICR mouse assessed as effect on internal organ morphology at 33 to 900 mg/kg, po after 7 days by microscopy; type: organism-based; design: dose 33-900 mg/kg, route oral; details: in vivo, 168 h
[11] = system: Mus musculus; assay: Toxicity ICR mouse assessed as effect on body weight at 33 to 900 mg/kg, po after 7 days; type: organism-based; design: dose 33-900 mg/kg, route oral; details: in vivo, 168 h
[12] = system: Mus musculus; assay: Toxicity ICR mouse assessed as mortality at 33 to 900 mg/kg, po after 7 days; type: organism-based; design: dose 33-900 mg/kg, route oral; details: in vivo, 168 h

SMILES	MIC [1] [µg/mL]	MIC [2] [µg/mL]	MIC [3] [µg/mL]	MIC [4] [µg/mL]	MIC [5] [µg/mL]	MIC [6] [µg/mL]	MIC [7] [µg/mL]	LD50 at 168 h [8] [mg/kg]	Activity [9]	Activity [10]	Activity [11]	Activity [12]
COc1ccc2c(Cc3ccc(C(C)C)cc3)c3[n+](cc2c1OC)CCc1cc2c(cc1-3)OCO2	1	1	4	4	64	4	32					
COc1ccc2c(Cc3ccc(C(C)C)cc3)c3[n+](cc2c1OCc1ccccc1)CCc1cc2c(cc1-3)OCO2.[Cl-]	4	4	4	4	64	4	32					
COc1ccc2c(Cc3ccc(C(C)C)cc3)c3[n+](cc2c1OCc1ccc(C(C)C)cc1)CCc1cc2c(cc1-3)OCO2.[Cl-]	1	1	1	2	4	2	8					
COc1ccc2c(Cc3ccc(C(C)C)cc3)c3[n+](cc2c1OCc1ccc(C(C)(C)C)cc1)CCc1cc2c(cc1-3)OCO2.[Cl-]	1	1	1	4	4	2	8					
COc1ccc2c(Cc3ccc(C(C)C)cc3)c3[n+](cc2c1OCc1ccc(C(F)(F)F)cc1)CCc1cc2c(cc1-3)OCO2.[Cl-]	2	2	2	4	16	4	16					
COc1ccc2c(Cc3ccc(C(C)C)cc3)c3[n+](cc2c1OCc1ccc(OC(F)(F)F)cc1)CCc1cc2c(cc1-3)OCO2.[Cl-]	2	2	2	4	32	4	16					
COc1ccc2c(Cc3ccc(C(C)C)cc3)c3[n+](cc2c1OCc1cc(F)c(F)c(F)c1)CCc1cc2c(cc1-3)OCO2.[Cl-]	4	4	4	4	32	4	32					
C/C=C/COc1c(OC)ccc2c(Cc3ccc(C(C)C)cc3)c3[n+](cc12)CCc1cc2c(cc1-3)OCO2.[Cl-]	0.5	0.5	0.5	1	2	1	4					
COc1ccc2c(Cc3ccc(C(C)C)cc3)c3[n+](cc2c1OC(C)(C)C)CCc1cc2c(cc1-3)OCO2.[Cl-]	1	1	4	4	32	4	32					
COc1ccc2c(Cc3ccc(C(C)C)cc3)c3n(cc-2c1=O)CCc1cc2c(cc1-3)OCO2	16 (≈ 35.3 µM)	16 (≈ 35.3 µM)	16 (≈ 35.3 µM)	16 (≈ 35.3 µM)	> 128	4 (≈ 8.82 µM)	> 128					
COc1ccc2c(Cc3ccc(C(C)C)cc3)c3[n+](cc2c1OC(C)=O)CCc1cc2c(cc1-3)OCO2.[Cl-]	16	16	16	16	> 128	8	> 128					
CCCC(=O)Oc1c(OC)ccc2c(Cc3ccc(C(C)C)cc3)c3[n+](cc12)CCc1cc2c(cc1-3)OCO2.[Cl-]	8	8	8	8	> 128	4	> 128					
CCCOc1c(OC)ccc2c(Cc3ccc(C(C)C)cc3)c3[n+](cc12)CCc1cc2c(cc1-3)OCO2.[Cl-]	0.5	0.5	1	2	4	2	8					
CCCCOc1c(OC)ccc2c(Cc3ccc(C(C)C)cc3)c3[n+](cc12)CCc1cc2c(cc1-3)OCO2.[Cl-]	0.25	0.25	0.5	1	2	1	4	900	Non-toxic	Non-toxic	Non-toxic	Non-toxic
C=CCOc1c(OC)ccc2c(Cc3ccc(C(C)C)cc3)c3[n+](cc12)CCc1cc2c(cc1-3)OCO2.[Cl-]	1	1	1	2	8	2	8					
CCC(C)(C)Oc1c(OC)ccc2c(Cc3ccc(C(C)C)cc3)c3[n+](cc12)CCc1cc2c(cc1-3)OCO2.[Cl-]	1	1	2	4	32	4	16					
COc1ccc2c(Cc3ccc(C(C)C)cc3)c3[n+](cc2c1OCCCO)CCc1cc2c(cc1-3)OCO2.[Cl-]	1	1	2	2	8	2	8					
C[C@@H]1[C@H](O)[C@@H](C)/C=C/C=C/C=C/C=C/C=C/C=C/C=C/[C@H](O[C@@H]2O[C@H](C)[C@@H](O)[C@H](N)[C@@H]2O)C[C@@H]2O[C@](O)(C[C@@H](O)C[C@@H](O)[C@H](O)CC[C@@H](O)C[C@@H](O)CC(=O)O[C@H]1C)C[C@H](O)[C@H]2C(=O)O [AMPHOTERICIN B]	0.5 (≈ 0.541 µM)	1 (≈ 1.08 µM)	0.5 (≈ 0.541 µM)	0.5 (≈ 0.541 µM)	1 (≈ 1.08 µM)	0.25 (≈ 0.271 µM)	16 (≈ 17.3 µM)					
